Measurements reported in US4880939A, “2,5,6,7-tetranor-18,18,19,19-tetradehydro-4,8-inter-m-phenylene PGI2 derivatives” (Toray Industries, priority 1986, dated 1989).
In brackets after ≈: the same amount, converted by molar mass. Like-named read-outs stand apart in the source and are kept apart here.

Tests used:
gastric acid secretion [1] = assay: Gastric acid secretion-inhibiting activity, method of M. Ghosh and H. Schild (perfused stomach, pentagastrin stimulation); format: in vivo, male SD rats; settings: ratio of index (area of pH time course) to that of PGE2; femoral vein injection; pentagastrin 0.05 μg/kg per minute
Description: The gastric acid secretion-inhibiting activity of the compounds of the present invention was also investigated according to the method described by M. Ghosh and H. Schild, Br. J. Pharmacol., 13, 54 (1958).
A group of male SD rats is incised in the abdomen under anesthesia by urethane. The lumen of the stomach is perfused with saline through a double tube cannula which has been inserted into the stomach through a lumen formed in the cardia. The pH of draining gastric acid is monitored by a pH meter. The secretion of gatric acid is stimulated by continuous infusion of pentagastrin at a rate of 0.05 μg/kg per minute. When the pH of the gastric acid becomes stable at about 4.0, a compound to be tested is injected through the femoral vein. An index for the gastric acid secretion-inhibiting activity of a compound to be tested is calculated from the area surrounded by a curve drawn by the time course of the pH of the gastric acid, from the time point when an initial increase of the pH is observed due to the gastric acid secretion-inhibition by the compound injected to the time point when the pH comes back to the baseline. The index thus obtained is compared to that of PGE2 and the ratio of the index to that of PGE2 is calculated.

[2] = system: lesions appearing on the stomach corpus; assay: Gastric cytoprotection activity (method of A. Robert; 0.2N NaOH-induced stomach lesions); format: in vivo; settings: dose reducing ulcer index to 50% of control, 30 minutes before 0.2N NaOH; for ED50 (gastric cytoprotection activity): oral; for ED50: po
Protocol: Gastric cytoprotection activity of the compounds of the present invention was investigated according to the method described by A. Robert in Gastroenterology, 77(3), 443 (1979).
A compound to be tested is orally administered to a group of animals and, 30 minutes later, 0.2N NaOH is orally applied to the animals. One hour later, the animals are sacrificed under anesthesia by chloroform and their stomachs are removed and fixed in 5% formalin solution. The stomach is then incised along the greater curvature. Lengths of lesions appearing on the stomach corpus are measured and summed. The total length is served as an ulcer index. A dose amount of a compound to be tested, by which the ulcer index is reduced to 50% of the index of a control group (100%), is designated as ED50.

gastric acid secretion [3] = assay: Gastric acid secretion-inhibiting activity, pylorus ligation method (Shay); format: in vivo; settings: injected into duodenum, pylorus ligated rats, five hours, five animals; for ED50, Acidity (gastric acid secretion-inhibiting activity) / ED50, Gastric juice volume (gastric acid secretion-inhibiting activity): 300 min; for ED50: Rattus norvegicus, 5 h
Protocol: Gastric acid secretion-inhibiting activity of the compounds of the present invention was investigated according to the pylorus ligation method described by Shay in Gastroenterology, 5, 43 (1945).
Under anesthesia by ether, the abdomen of a group of rats is incised at its median and the pylorus is ligated with a silk thread. Simultaneously, a compound to be tested is injected into the duodenum of the same rat. The abdomen is then closed. Five hours later, the abdomen is again incised and the esophagus is ligated. The whole stomach is then removed. The stomach is cut along the greater curvature and the contents of the stomach are transferred to a graduated centrifugal tube. After centrifugation at 3,000 rpm for 10 minutes, the volume of the gastric juice is measured. A portion of the supernatant is taken and titrated to pH 7 with 0.1N NaOH in a pH stat, Radio Meter Inc. An average dose amount of a compound to be tested in a group of five animals, by which either the volume of gastric juice (in ml) or the acidity (in mEq/ml) is reduced to 50% of the corresponding value of a control group, is designated as ED50.

platelet aggregation = assay: Platelet aggregation-inhibiting activity (ADP-induced, platelet-rich plasma); format: cell-based, person; settings: PRP, ADP 10 μM, compound added one minute before ADP; for IC50: Platelet
Protocol: The blood taken from the cubital median vein of a person is centrifuged at 800 rpm for 10 minutes and the supernatant is used as platelet-rich plasma (PRP). The PRP is distributed into small test tubes, and adenosine diphosphate (ADP) is added at a final concentration of 10 μM thereinto to induce platelet aggregation. The size of the aggregation is determined in a platelet aggregation measuring apparatus (RiKa-Denki, Tokyo, Japan) by measuring the change in turbidity of a sample in the small test tube. A compound to be tested is added to the sample one minute before the addition of ADP. The concentration of the compound to be tested, by which the platelet aggregation is reduced to 50% of that observed in a control group, is designated as IC50.

[4] = system: blood pressure in the carotid; assay: Hypotensive activity; format: in vivo, Wistar male rats; settings: dose reducing blood pressure by 25 mmHg, injected via femoral artery, chloralose anesthesia; for ED (25 mmHg): Rattus norvegicus, read-out: ED25 (hypotensive activity)
Protocol: A catheter is inserted into and held in the carotid of a group of Wistar male rats under anesthesia by chloralose. Another end of the catheter is connected to a polygraph with a pressure transducer to measure the blood pressure in the carotid. A compound to be tested is injected via a catheter connected to the femoral artery. A dose amount of a compound to be tested, by which the blood pressure is reduced by 25 mmHg in the dose-response curve of the hypotensive compound, is designated as ED25.

[5] = system: platelet aggregation, gastric acid secretion, peripheral blood vessel; settings: background; cited from earlier work
[6] = unstable exo-enol structure; converted into 6-oxo PGF1α; cited from earlier work
[7] = background; cited from earlier work
[8] = background; cited from earlier work; remark: listed apart in the source
[9] = acidity reduced to 50% of control
[10] = gastric juice volume reduced to 50% of control
[11] = acidity reduced to 50% of control, read-out: ED50, Acidity (gastric acid secretion-inhibiting activity)
[12] = gastric juice volume reduced to 50% of control, read-out: ED50, Gastric juice volume (gastric acid secretion-inhibiting activity)

IC50 (platelet aggregation) [ng/mL]	Structure (SMILES)	Relative activity (PGE2 = 1), gastric acid secretion-inhibiting activity (gastric acid secretion [1])	ED50 [2] [µg/kg]	ED50 (gastric acid secretion [3]; [11]) [µg/kg]	ED50 (gastric acid secretion [3]; [12]) [µg/kg]	ED (25 mmHg) [4] [µg/kg]	further results
–	CCCCC[C@H](O)/C=C/[C@H]1[C@H](O)CC(=O)[C@@H]1C/C=C\CCCC(=O)O [PGE2, reference compound]	1	–	–	–	–	–
–	CC#CCC(C)C(O)C=CC1C(O)CC2Oc3c(CCC(=O)O)cccc3C21 [Compound 39, 16(S)-methyl-2,5,6,7-tetranor-18,18,19,19-tetradehydro-4,8-inter-m-phenylene PGI2]	–	–	–	–	–	ED50 (gastric cytoprotection activity) [2]: 0.38 µg/kg; ED50, Acidity (gastric acid secretion-inhibiting activity) (gastric acid secretion [3]; [9]): 9.5 µg/kg; ED50, Gastric juice volume (gastric acid secretion-inhibiting activity) (gastric acid secretion [3]; [10]): 25 µg/kg; IC50 (platelet aggregation-inhibiting activity) (platelet aggregation): 0.42 ng/mL (≈ 1.09 nM); ED25 (hypotensive activity) [4]: 0.07 µg/kg
–	CC#CCC(C)(C)C(O)C=CC1C(O)CC2Oc3c(CCCO)cccc3C21 (stereo not shown) [Compound 69, 3-Decarboxy-3-hydroxymethyl-16,16-dimethyl-2,5,6,7-tetranor-18,18,19,19-tetradehydro-4,8-inter-m-phenylene PGI2]	2.7	0.82	270	> 3000	> 100	–
0.34 (≈ 0.853 nM)	CCC#CCC(C)C(O)C=CC1C(O)CC2Oc3c(CCC(=O)O)cccc3C21 (stereo not shown) [Compound 42, 16-Methyl-20a-homo-2,5,6,7-tetranor-18,18,19,19-tetradehydro-4,8-inter-m-phenylene PGI2]	26	–	23	18	–	–
5.5 (≈ 12.1 nM)	CCCCCC#CCC(C)(C)C(O)C=CC1C(O)CC2Oc3c(CCC(=O)O)cccc3C21 (stereo not shown) [Compound 64, 16,16-dimethyl-20a,20b,20c,20d-tetrahomo-2,5,6,7-tetranor-18,18,19,19-tetradehydro-4,8-inter-m-phenylene PGI2]	0.25	27.7	> 10000	5600	15.5	–
–	CCCCC[C@H](O)/C=C/[C@@H]1[C@H]2C/C(=C/CCCC(=O)O)O[C@H]2C[C@H]1O [PGI2, Prostaglandin I2]	–	–	–	–	–	gastric acid secretion-inhibiting activity [5]: potent; peripheral blood vessel-dilating activity [5]: potent; platelet aggregation-inhibiting activity [5]: potent; stability in neutral aqueous solutions [6]: extremely unstable; duration of physiological activities in vivo [7]: only short duration; stability in vivo [7]: unstable in vivo
–	CCCCC[C@H](O)/C=C/[C@@H]1[C@@H](CC(=O)CCCCC(=O)O)[C@@H](O)C[C@H]1O [6-oxo PGF1α]	–	–	–	–	–	physiological activity [8]: substantially inactive physiologically
3 (≈ 6.81 nM)	CCCCC#CCC(C)(C)C(O)C=CC1C(O)CC2Oc3c(CCC(=O)O)cccc3C21 (stereo not shown) [Compound 60, 16,16-Dimethyl-20a,20b,20c-trihomo-2,5,6,7-tetranor-18,18,19,19-tetradehydro-4,8-inter-m-phenylene PGI2]	0.5	–	> 3000	> 3000	–	–
7.3 (≈ 18.3 nM)	CC#CCC(C)(C)C(O)C=CC1C(O)CC2Oc3c(CCC(=O)O)cccc3C21 (stereo not shown) [Compound 54, 16,16-Dimethyl-2,5,6,7-tetranor-18,18,19,19-tetradehydro-4,8-inter-m-phenylene PGI2]	16	2.8	230	> 300	0.64	–
3.2 (≈ 7.76 nM)	CCC#CCC(C)(C)C(O)C=CC1C(O)CC2Oc3c(CCC(=O)O)cccc3C21 (stereo not shown) [Compound 57, 16,16-Dimethyl-20a-homo-2,5,6,7-tetranor-18,18,19,19-tetradehydro-4,8-inter-m-phenylene PGI2]	5.3	1.14	87	210	0.14	–
0.63 (≈ 1.48 nM)	CCCCC#CCC(C)C(O)C=CC1C(O)CC2Oc3c(CCC(=O)O)cccc3C21 (stereo not shown) [Compound 50, 16-Methyl-20a,20b,20c-trihomo-2,5,6,7-tetranor-18,18,19,19-tetradehydro-4,8-inter-m-phenylene PGI2]	–	3.74	740	510	–	–
0.96 (≈ 2.33 nM)	CCCC#CCC(C)C(O)C=CC1C(O)CC2Oc3c(CCC(=O)O)cccc3C21 (stereo not shown) [Compound 46, 16-Methyl-20a,20b-dihomo-2,5,6,7-tetranor-18,18,19,19-tetradehydro-4,8-inter-m phenylene PGI2]	–	2.33	140	120	0.22	–
–	CC#CCC(C)C(O)C=CC1C(O)CC2Oc3c(CCC(=O)O)cccc3C21 [Compound 38, 16(R)-Methyl-2,5,6,7-tetranor-18,18,19,19-tetradehydro-4,8-inter-m-phenylene PGI2]	–	–	–	–	–	ED50 (gastric cytoprotection activity) [2]: 24.1 µg/kg; ED50, Acidity (gastric acid secretion-inhibiting activity) (gastric acid secretion [3]; [9]): 490 µg/kg; ED50, Gastric juice volume (gastric acid secretion-inhibiting activity) (gastric acid secretion [3]; [10]): > 1000 µg/kg; IC50 (platelet aggregation-inhibiting activity) (platelet aggregation): 6.5 ng/mL (≈ 16.9 nM); ED25 (hypotensive activity) [4]: 0.57 µg/kg
